Measured values reported in ChEMBL document CHEMBL2375230 (J Med Chem, 2013).
≈ marks a conversion by molar mass, not a printed value. Calls of active or inactive are those of the source. No cut-off for these calls is given here.

Assays:
[1] = biological target: T1, Methionine aminopeptidase 1 (Homo sapiens, UniProt P53582); assay: Inhibition of human methionine aminopeptidase 1 in presence of Mn2+
[2] = biological target: Methionine aminopeptidase 2 (Homo sapiens, UniProt P50579); assay: Inhibition of human methionine aminopeptidase 2 in presence of Mn2+
Methionine aminopeptidase 2, sequence (P50579 whole entry): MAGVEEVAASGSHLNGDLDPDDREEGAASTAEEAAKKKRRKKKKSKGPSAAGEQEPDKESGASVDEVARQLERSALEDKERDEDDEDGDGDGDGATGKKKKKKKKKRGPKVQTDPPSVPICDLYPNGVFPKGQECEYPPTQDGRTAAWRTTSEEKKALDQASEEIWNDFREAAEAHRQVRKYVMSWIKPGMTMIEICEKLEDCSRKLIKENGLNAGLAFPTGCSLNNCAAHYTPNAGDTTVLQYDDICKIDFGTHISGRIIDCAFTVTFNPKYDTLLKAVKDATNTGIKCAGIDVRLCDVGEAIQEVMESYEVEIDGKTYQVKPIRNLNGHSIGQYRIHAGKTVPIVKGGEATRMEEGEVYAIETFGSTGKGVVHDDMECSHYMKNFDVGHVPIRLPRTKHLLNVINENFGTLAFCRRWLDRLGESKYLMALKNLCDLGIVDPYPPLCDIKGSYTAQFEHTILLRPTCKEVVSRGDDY

[3] = biological target: T1, Methionine aminopeptidase 1; assay: Inhibition of human methionine aminopeptidase 1 in presence of Co2+
PC-3 = assay: Inhibition of methionine aminopeptidase in human PC3 cells assessed as increase in ratio of unprocessed 14-3-3gamma to total 14-3-3gamma at 0.1 uM after 24 hrs by immunoblotting analysis relative to DMSO-treated control; assay type: cell-based
MCF7 = assay: Inhibition of methionine aminopeptidase in human MCF7 cells assessed as increase in ratio of unprocessed 14-3-3gamma to total 14-3-3gamma at 0.1 uM after 24 hrs by immunoblotting analysis relative to DMSO-treated control; assay type: cell-based
HUVEC [4] = assay: Antiproliferative activity against HUVEC at 30 uM after 30 hrs by [3H]-thymidine incorporation assay relative to control; assay type: functional, Homo sapiens
[5] = Antiproliferative activity against HDFa cells after 30 hrs by [3H]-thymidine incorporation assay; assay type: functional, cell-based, Homo sapiens
HUVEC [6] = assay: Antiproliferative activity against HUVEC after 30 hrs by [3H]-thymidine incorporation assay; assay type: functional, cell-based, Homo sapiens
HeLa [7] = assay: Antiproliferative activity against human HeLa cells after 30 hrs by [3H]-thymidine incorporation assay; assay type: functional, cell-based
[8] = Solubility of the compound; assay type: physicochemical
[9] = Antiproliferative activity against HDFa cells at 30 uM after 30 hrs by [3H]-thymidine incorporation assay relative to control; assay type: functional, Homo sapiens
HDFa = assay: Antiproliferative activity against HDFa cells at 10 uM after 30 hrs by [3H]-thymidine incorporation assay; assay type: functional, cell-based; settings: Homo sapiens
HUVEC [10] = assay: Inhibition of methionine aminopeptidase in HUVEC assessed as increase in unprocessed 14-3-3gamma level at 0.1 to 10 uM by immunoblotting analysis in presence of cycloheximide; assay type: cell-based; settings: Homo sapiens
[11] = biological target: T1, Methionine aminopeptidase 1; assay: Inhibition of methionine aminopeptidase 1 in HEK293 cells expressing 3xFLAG-tagged BTF3 assessed as increase in [35S]-Met in solution at 100 nM after 30 mins by scintillation counting analysis; assay type: cell-based
HUVEC [12] = assay: Inhibition of methionine aminopeptidase in HUVEC assessed as increase in unprocessed 14-3-3gamma level at 0.1 to 10 uM by immunoblotting analysis; assay type: cell-based; settings: Homo sapiens
HUVEC [13] = assay: Inhibition of methionine aminopeptidase in HUVEC assessed as accumulation of unprocessed 14-3-3gamma at 1 nM after 24 hrs by immunoblotting analysis; assay type: cell-based; settings: Homo sapiens
[14] = biological target: T1, Methionine aminopeptidase 1; assay: Inhibition of human methionine aminopeptidase 1 up to 250 uM
[15] = biological target: T1, Methionine aminopeptidase 1; assay: Inhibition of human methionine aminopeptidase 1 in presence of Zn2+
HUVEC [16] = assay: Cytotoxicity against HUVEC at 10 uM after 24 hrs; assay type: cell-based; settings: human
HeLa [17] = assay: Inhibition of methionine aminopeptidase in human HeLa cells assessed as increase in ratio of unprocessed 14-3-3gamma to total 14-3-3gamma at 0.1 uM after 24 hrs by immunoblotting analysis relative to DMSO-treated control; assay type: cell-based
Homo sapiens = species on record: Homo sapiens; assay: Inhibition of methionine aminopeptidase in HUVEC assessed as increase in ratio of unprocessed 14-3-3gamma to total 14-3-3gamma at 0.1 uM after 24 hrs by immunoblotting analysis relative to control
HUVEC [18] = assay: Inhibition of methionine aminopeptidase in HUVEC assessed as accumulation of unprocessed 14-3-3gamma at 10 nM after 24 hrs by immunoblotting analysis; assay type: cell-based; settings: Homo sapiens
E6-1 = assay: Inhibition of methionine aminopeptidase in human Jurkat E6-1 cells assessed as increase in ratio of unprocessed 14-3-3gamma to total 14-3-3gamma at 0.1 uM after 24 hrs by immunoblotting analysis relative to DMSO-treated control; assay type: cell-based
HEK293 = assay: Inhibition of methionine aminopeptidase in HEK293 cells assessed as increase in ratio of unprocessed 14-3-3gamma to total 14-3-3gamma at 0.1 uM after 24 hrs by immunoblotting analysis relative to DMSO-treated control; assay type: cell-based; settings: Homo sapiens

For `c1ccc(CCNc2nc(-c3ccccn3)nc3ccccc23)cc1`, the EC50 [1] was 24 µM, the EC50 [2] was greater than 100 µM and the EC50 [3] was 0.94 µM.

`c1ccc(NCCNc2nc(-c3ccccn3)nc3ccccc23)cc1` showed an EC50 [1] greater than 100 µM, an EC50 [2] greater than 300 µM and an EC50 [3] of 1.6 µM.

`Clc1nc(-c2ccccn2)nc2ccccc12` gave an EC50 [1] greater than 100 µM, an EC50 [2] greater than 100 µM and an EC50 [3] of 1.5 µM.

`CCCCCCCCCCCCCC(=O)O[C@H]1CC[C@H](NC(=O)[C@H](OC)[C@H](O)[C@@H](O)[C@H](O)/C=C/C(C)C)C(=O)N(C)C1` showed a Ratio (PC-3) of 2.1 and a Ratio (MCF7) of 2.6.

With `Cc1nc(-c2ccccn2)nc(NCCc2ccccc2)c1Cl` the Activity (HUVEC [4]) was greater than 90%, the EC50 ([5]; Homo sapiens, HDFa) was 3.6 µM and the EC50 (HUVEC [6]; Homo sapiens, HUVEC) was 11 µM. The EC50 (HeLa [7]; Homo sapiens, HeLa) was 7.1 µM and the solubility [8] was 90 µM (≈ 29.2 µg/mL).

`c1ccc(-c2nc(N3CCOCC3)c3ccccc3n2)nc1` showed an EC50 [1] of 41 µM, an EC50 [2] greater than 100 µM and an EC50 [3] of 0.049 µM.

Molecule `Cc1nc(-c2ccccn2)nc(NCCNc2ccc(C(F)(F)F)cn2)c1Cl` has an EC50 ([5]; Homo sapiens, HDFa) of 1.9 µM, an EC50 (HUVEC [6]; Homo sapiens, HUVEC) of 4.3 µM and an EC50 (HeLa [7]; Homo sapiens, HeLa) of 10 µM. For the same molecule, the solubility [8] was 40 µM (≈ 16.4 µg/mL).

For `c1ccc(-c2cc(N3CCOCC3)c3ccccc3n2)nc1`, the EC50 [1] was greater than 100 µM, the EC50 [2] was greater than 100 µM and the EC50 [3] was 0.41 µM.

With `c1ccc(-c2ccccn2)nc1` the EC50 ([5]; Homo sapiens, HDFa) was 10 µM, the Activity [9] was 94% and the Activity (HDFa) was “inactive”.

With `CC(C)(C)OC(=O)Nc1cccnc1C(=O)Nc1nccs1` the EC50 ([5]; Homo sapiens, HDFa) was 0.79 µM, the EC50 ([5]; hdfa) was 0.65 µM and the EC50 (HUVEC [6]; Homo sapiens, HUVEC) was 2 µM. For the same molecule, the EC50 (HUVEC [6]; huvec) was 1.5 µM, the EC50 (HeLa [7]; Homo sapiens, HeLa) was 2.3 µM and the EC50 (HeLa [7]; hela) was 2 µM.

Molecule `c1ccc(-c2cc(N3CCCCC3)c3ccccc3n2)nc1` has an EC50 [1] greater than 100 µM, an EC50 [2] greater than 100 µM and an EC50 [3] of 0.39 µM.

In the case of `c1ccc(-c2nc(N3CCCCC3)c3ccccc3n2)nc1`, the EC50 [1] is reported as 7.6 µM, the EC50 [2] is reported as greater than 100 µM and the EC50 [3] is reported as 0.11 µM.

Molecule `CN1CCN(c2cc(-c3ccccn3)nc3ccccc23)CC1` has an EC50 [1] greater than 100 µM, an EC50 [2] greater than 100 µM and an EC50 [3] of 0.87 µM.

With `CO[C@@H]1[C@H](OC(=O)NC(=O)CCl)CC[C@]2(CO2)[C@H]1[C@@]1(C)O[C@@H]1CC=C(C)C` the inhibition (HUVEC [10]) was “inactive”, the inhibition [11] was “inactive” and the inhibition (HUVEC [12]) was “Active”. For the same molecule, the inhibition (HUVEC [13]) was “Active”.

For `c1ccc2[nH]c(-c3cscn3)nc2c1` [THIABENDAZOLE], the EC50 [1] was greater than 100 µM, the inhibition [14] was “inactive” and the EC50 ([5]; Homo sapiens, HDFa) was greater than 250 µM. It also gave an EC50 [15] greater than 250 µM, an EC50 (HUVEC [6]; Homo sapiens, HUVEC) greater than 250 µM and an EC50 [3] of 3.4 µM.

For `Cc1nc(-c2ccc(Cl)cn2)nc(NC[C@@H](NCCCCc2ccccc2)c2ccccc2)c1Cl`, the EC50 ([5]; Homo sapiens, HDFa) was 0.76 µM, the Activity (HUVEC [16]) was “Toxic” and the EC50 (HeLa [7]; Homo sapiens, HeLa) was 0.97 µM. For the same molecule, the solubility [8] was 40 µM (≈ 20.3 µg/mL).

For `CCCCCCCCCCCCCC(=O)O[C@H]1CC[C@H](NC(=O)[C@H](OC)[C@H](O)[C@@H](O)[C@H](O)/C=C/C(C)C)C(=O)NC1`, the Ratio (HeLa [17]) was 2.3, the inhibition (HUVEC [10]) was “inactive” and the Ratio (Homo sapiens) was 8.1. The inhibition (HUVEC [18]) was “Active”, the Ratio (E6-1) was 1.4 and the inhibition (HUVEC [12]) was “Active”. It also gave a Ratio (HEK293) of 2.1.
